In ChEMBL document CHEMBL1151568, “New TXA2/PGH2 receptor antagonists based on the carbacyclin skeleton” (Bioorg Med Chem Lett, 1993):

Columns and labels:
[1] = target: T1, Thromboxane A2 receptor (Homo sapiens) (UniProt P21731); assay: Antiaggregatory potency relative to TP-receptor antagonist SQ 29548; format: functional
T1 sequence (whole entry): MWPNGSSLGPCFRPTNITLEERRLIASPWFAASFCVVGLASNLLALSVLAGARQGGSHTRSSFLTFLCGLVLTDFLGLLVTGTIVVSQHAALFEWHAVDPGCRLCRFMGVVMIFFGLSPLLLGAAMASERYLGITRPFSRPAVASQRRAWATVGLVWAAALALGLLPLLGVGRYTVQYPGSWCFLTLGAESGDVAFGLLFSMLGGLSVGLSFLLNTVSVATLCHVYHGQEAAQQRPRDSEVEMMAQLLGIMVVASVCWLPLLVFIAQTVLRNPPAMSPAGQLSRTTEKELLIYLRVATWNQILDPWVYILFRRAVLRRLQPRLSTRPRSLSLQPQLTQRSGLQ

[2] = target: T1, Thromboxane A2 receptor (Homo sapiens); assay: TP receptor affinity, expressed as competition factor (CF) which is the ratio of IC50 of test to IC50 of standard
Homo sapiens [3] = species: Homo sapiens; assay: Compound was tested for its ability to inhibit blood platelet aggregation induced by TP-receptor agonist U 46619; format: functional
Prostacyclin receptor [4] = target: T2, Prostacyclin receptor (Homo sapiens, UniProt P43119); assay: (§1) Compound was tested for Prostanoid IP receptor affinity and expressed as competition factor (CF) which is the ratio of IC50 of test to IC50 of standard
T2 sequence (P43119 whole entry): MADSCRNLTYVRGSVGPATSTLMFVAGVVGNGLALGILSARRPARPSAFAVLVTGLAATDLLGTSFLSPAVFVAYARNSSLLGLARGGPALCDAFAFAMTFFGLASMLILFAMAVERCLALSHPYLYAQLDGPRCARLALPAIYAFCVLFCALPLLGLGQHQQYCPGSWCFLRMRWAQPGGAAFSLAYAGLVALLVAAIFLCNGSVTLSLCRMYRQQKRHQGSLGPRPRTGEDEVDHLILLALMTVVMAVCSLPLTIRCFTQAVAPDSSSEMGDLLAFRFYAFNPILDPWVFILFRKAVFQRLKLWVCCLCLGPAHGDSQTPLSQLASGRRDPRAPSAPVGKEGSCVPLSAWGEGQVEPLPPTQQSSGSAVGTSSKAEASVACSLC

Prostacyclin receptor [5] = target: T2, Prostacyclin receptor; assay: as §1; remark: listed apart in the source
Homo sapiens [6] = species: Homo sapiens; assay: Compound was tested for its ability to inhibit blood platelet aggregation induced by ADP; format: functional

Compound	Relative potency [1]	CF [2]	IC50 (Homo sapiens [3]) [µM]	IC50 (Prostacyclin receptor [4])	CF (Prostacyclin receptor [5])	IC50 (Homo sapiens [6]) [µM]
O=C(O)CCC/C=C1/C[C@H]2C[C@@H](O)[C@H](/C=N\OC(c3ccccc3)c3ccccc3)[C@H]2C1	0.001	210	23	NC	–	–
O=C(O)CCC/C=C1\C[C@H]2C[C@@H](O)[C@H](/C=N/OCc3ccc4ccccc4c3)[C@H]2C1	0.03	280	1.6	–	31	1.1
O=C(O)CCC/C=C1/C[C@H]2C[C@@H](O)[C@H](/C=N/OCc3ccc4ccccc4c3)[C@H]2C1	0.002	90	2.2	–	76	–
O=C(O)CCC/C=C1\C[C@H]2CC[C@H](/C=N/NC(=O)Nc3ccc(Cl)c(Cl)c3)[C@H]2C1	0.002	4.3	–	–	–	–
O=C(O)CC/C=C1\C[C@H]2C[C@@H](O)[C@H](/C=N/NC(=O)Nc3ccc([N+](=O)[O-])cc3)[C@H]2C1	0.027	22	–	–	–	–
O=C(O)CCC/C=C1/C[C@H]2C[C@@H](O)[C@H](/C=N/NC(=O)Nc3cccc(Cl)c3)[C@H]2C1	0.25	0.2	–	–	–	–
O=C(O)CCC/C=C1/C[C@H]2C[C@@H](O)[C@H](/C=N/OCc3ccccc3)[C@H]2C1	0.001	470	5.4	–	100	> 50
O=C(O)CCC/C=C1/C[C@H]2CC[C@H](/C=N/NC(=O)Nc3ccc(Cl)c(Cl)c3)[C@H]2C1	0.003	1.6	–	–	–	–
O=C(O)CCC/C=C1\C[C@H]2C[C@@H](O)[C@H](/C=N\OC(c3ccccc3)c3ccccc3)[C@H]2C1	0.03	95	1.6	–	160	1
O=C(O)CCC/C=C1/C[C@H]2CC[C@H](/C=N/NC(=O)Nc3ccccc3)[C@H]2C1	0.002	3	–	–	–	–
O=C(O)CCC/C=C1/C[C@H]2C[C@@H](O)[C@H](/C=N/NC(=O)Nc3ccc([N+](=O)[O-])cc3)[C@H]2C1	0.33	0.1	–	–	–	–
O=C(O)CC/C=C1\C[C@H]2C[C@@H](O)[C@H](/C=N/NC(=O)Nc3ccc(Cl)c(Cl)c3)[C@H]2C1	0.008	16	–	–	–	–
O=C(O)CCC/C=C1\C[C@H]2C[C@@H](O)[C@H](/C=N/OCc3ccc(F)cc3)[C@H]2C1	0.009	> 1000	1.9	–	20	1.5
O=C(O)CCC/C=C1/C[C@H]2CC[C@H](/C=N/NC(=O)Nc3ccc([N+](=O)[O-])cc3)[C@H]2C1	0.01	0.7	–	–	–	–
O=C(O)CCC/C=C1\C[C@H]2C[C@@H](O)[C@H](/C=N/OCc3ccccc3)[C@H]2C1	0.009	> 1000	1.9	–	7	2
O=C(O)CCC/C=C1\C[C@H]2C[C@@H](O)[C@H](/C=N/NC(=O)Nc3cccc(Cl)c3)[C@H]2C1	0.09	1.6	–	–	–	–
O=C(O)CC/C=C1/C[C@H]2C[C@@H](O)[C@H](/C=N/NC(=O)Nc3ccc(Cl)c(Cl)c3)[C@H]2C1	0.33	0.8	–	–	–	–
O=C(O)CCC/C=C1\C[C@H]2C[C@@H](O)[C@H](/C=N/NC(=O)Nc3ccc([N+](=O)[O-])cc3)[C@H]2C1	0.1	0.7	–	–	–	–
O=C(O)CCC/C=C1\C[C@H]2C[C@@H](O)[C@H](/C=N/NC(=O)Nc3ccc(Cl)c(Cl)c3)[C@H]2C1	0.038	0.8	–	–	–	–
O=C(O)CCC/C=C1/C[C@H]2C[C@@H](O)[C@H](/C=N/NC(=O)Nc3ccc(Cl)c(Cl)c3)[C@H]2C1	1	0.1	–	–	–	–
O=C(O)CCC/C=C1\C[C@H]2CC[C@H](/C=N/NC(=O)Nc3cccc(Cl)c3)[C@H]2C1	0.0007	16	–	–	–	–
O=C(O)CCC/C=C1\C[C@H]2CC[C@H](/C=N/NC(=O)Nc3ccc([N+](=O)[O-])cc3)[C@H]2C1	0.01	2.2	–	–	–	–
O=C(O)CCC/C=C1/C[C@H]2C[C@@H](O)[C@H](/C=N/OCc3ccc(F)cc3)[C@H]2C1	0.001	500	14	–	250	–
O=C(O)CCC/C=C1\C[C@H]2CC[C@H](/C=N/NC(=O)Nc3ccccc3)[C@H]2C1	0.0004	40	–	–	–	–
O=C(O)CC/C=C1/C[C@H]2C[C@@H](O)[C@H](/C=N/NC(=O)Nc3ccc([N+](=O)[O-])cc3)[C@H]2C1	8.3	0.5	–	–	–	–

Next, values leading:

Relative potency [1]	CF [2]	IC50 (Homo sapiens [3]) [µM]	IC50 (Prostacyclin receptor [4])	CF (Prostacyclin receptor [5])	IC50 (Homo sapiens [6]) [µM]	Compound
0.008	138	–	–	–	–	O=C(O)COC/C=C1\C[C@H]2C[C@@H](O)[C@H](/C=N/NC(=O)Nc3ccccc3)[C@H]2C1
0.17	1.5	–	–	–	–	O=C(O)CCC/C=C1/C[C@H]2C[C@@H](O)[C@H](/C=N/NC(=O)Nc3ccccc3)[C@H]2C1
0.004	50	–	–	–	–	O=C(O)CC/C=C1\C[C@H]2C[C@@H](O)[C@H](/C=N/NC(=O)Nc3cccc(Cl)c3)[C@H]2C1
0.11	2.9	–	–	–	–	O=C(O)COC/C=C1\C[C@H]2C[C@@H](O)[C@H](/C=N/NC(=O)Nc3ccc(Cl)c(Cl)c3)[C@H]2C1
1	0.9	–	–	–	–	O=C(O)COC/C=C1/C[C@H]2C[C@@H](O)[C@H](/C=N/NC(=O)Nc3ccc([N+](=O)[O-])cc3)[C@H]2C1
0.005	20	–	–	–	–	O=C(O)CCC/C=C1\C[C@H]2C[C@@H](O)[C@H](/C=N/NC(=O)Nc3ccccc3)[C@H]2C1
0.11	2.4	–	–	–	–	O=C(O)CC/C=C1/C[C@H]2C[C@@H](O)[C@H](/C=N/NC(=O)Nc3cccc(Cl)c3)[C@H]2C1
0.33	0.7	–	–	–	–	O=C(O)COC/C=C1/C[C@H]2C[C@@H](O)[C@H](/C=N/NC(=O)Nc3ccc(Cl)c(Cl)c3)[C@H]2C1
0.014	16	–	–	–	–	O=C(O)COC/C=C1/C[C@H]2C[C@@H](O)[C@H](/C=N/NC(=O)Nc3ccccc3)[C@H]2C1
0.11	4	–	–	–	–	O=C(O)COC/C=C1/C[C@H]2C[C@@H](O)[C@H](/C=N/NC(=O)Nc3cccc(Cl)c3)[C@H]2C1
0.0007	454	–	–	–	–	O=C(O)CC/C=C1\C[C@H]2C[C@@H](O)[C@H](/C=N/NC(=O)Nc3ccccc3)[C@H]2C1
0.33	9.4	–	–	–	–	O=C(O)COC/C=C1\C[C@H]2C[C@@H](O)[C@H](/C=N/NC(=O)Nc3ccc([N+](=O)[O-])cc3)[C@H]2C1
0.059	10	–	–	–	–	O=C(O)CC/C=C1/C[C@H]2C[C@@H](O)[C@H](/C=N/NC(=O)Nc3ccccc3)[C@H]2C1
0.03	18	–	–	–	–	O=C(O)COC/C=C1\C[C@H]2C[C@@H](O)[C@H](/C=N/NC(=O)Nc3cccc(Cl)c3)[C@H]2C1
